# According to EP0679081B1, “PHARMACEUTICAL COMPOSITIONS FOR PREVENTION AND TREATMENT OF CANCEROUS DISEASE AND PROCESS FOR THEIR PREPARATION” (priority 1993, dated 1995):
# Test system: Sp2/0-Ag14 mouse myeloma cells
# Test: Effect on number of viable Sp2/0-Ag14 cells in culture (trypan blue dye exclusion count)
# Conditions: for number of cells as compared to the number of untreated cells: substance used alone, statement in words
# Method: In the experiments the newest methods approved by the scientific literature were used. In case of Sp2/0-Ag14 and K562 lines, the logarithmically growing cells were harvested from the medium and resuspended in a 96-well plate used for cell culture to a final concentration of 4x10^4 Sp2/0-Ag14 cells and 2x10^4 K562 cells, respectively, in 250 µl appropriate medium per well containing the tested materials in the indicated concentrations. In case of HeLa, HEp-2 and Vero cells, the cultured cells were harvested from 75 % confluent tissue culture flasks with 0.2 % trypsin and resuspended in the appropriate medium at a density of 10^5 cells/ml. Aliquots (100 µl) were dispensed into 96-well micro plates and incubated for 24 hours. Then the medium was discarded and replaced with 250 µl fresh medium containing the tested compounds in the indicated concentrations. All kinds of cells were allowed to proliferate for 48 hours. The number of viable Sp2/0-Ag14 and K562 cells was then counted microscopically with the trypan blue dye exclusion method. The survival of HeLa, HEp-2 and Vero cells was measured by assessing the endogenous alkaline phosphatase activity of the cells. Results were evaluated using Student's t-test. Data after the mean values in the Tables and signs in the Figures mean: "standard error of mean" (SEM).
# In case of L-tryptophan for example the 2-4th control experiments show the effects of 0.002; 0.006; and 0.01 % by mass, resp., of L-tryptophan alone on the number of cells.
# In Table 2 the amounts of materials expressed in % by mass and multiplied by 1000 are shown, thus the numbers in the Table should read by multiplying with 10^-3; for example in Example 21 in case of L-tryptophan the number 6 means 6 x 10^-3, that is 0.006 % by mass. The conditions of the experiments were the same as before.
# To help the comparability with the earlier results Sp2/0-Ag14 cells were also used and the experimental conditions were the same as before. On the vertical axis the changes of the amounts of cells expressed in the percentage of the amounts of untreated cells are shown. On the horizontal axis the changes expressed in % of the compositions (changes of the amounts of the active ingredients) are shown. […] Thus, the 80 % composition of Example 99 contains every component in an amount of 80 %.
# The composition of the control mixtures was given in connection with Table 1.
# As a function of time the effect of the 100 % composition of Example 103 on Sp2/0-Ag14 cells was investigated and compared to the 100 % control mixture and to untreated cells. The experimental conditions were the same as in the previous experiments except that in this case the cells were counted not only after 48 hr but also after 6; 12; 24; and 36 hr. On the vertical axis the cell number/ml is shown. On the horizontal axis the time is shown in hours.
# [1] = Table 2 (first part), 48 hr, untreated cells = 100 %, mean ± SEM
# [2] = Table 2 (first part), number of cells after 48 hr, mean ± SEM, untreated cells 74.3 ± 3.9
# [3] = Table 1, number of cells after 48 hr incubation, mean ± SEM, untreated cells 59.1 ±3.2
# [4] = Table 2 (second part), number of cells after 48 hr, mean ± SEM, untreated cells 74.3 ± 3.9
SMILES,CHANGE OF THE NUMBER OF CELLS (x 10^4) [3],"IN% OF THE UNTREATED CELLS (mouse, sp2/0-ag14 cells, 48 h)","IN % OF THE UN-TREATED CELLS (mouse, sp2/0-ag14 cells, 48 h)",other results
"N=C(N)NCCC[C@H](N)C(=O)O [Control 23, L-arginine]",,,,IN % OF THE UN-TREATED CELLS [1]: 103.4 ± 1.8%; CHANGE OF THE NUMBER OF CELLS (x 10^4) [2]: 76.8 ± 1.3 x 10^4; number of cells as compared to the number of untreated cells (48 hr): slightly increased
"Nc1ncnc2nc[nH]c12 [Control 12, adenine]",58.6 ± 1.5 x 10^4,99.1 ± 2.8%,,
"O=C1O[C@H]([C@@H](O)CO)C(O)=C1O [Control 18, L-ascorbic acid]",58.2±1.4 x 10^4,98.5 ±2.5%,,
"N[C@@H](Cc1c[nH]c2ccccc12)C(=O)O [Control 3, L-tryptophan]",62.6±2.0 x 10^4,106.0±3.4%,,
"O=C(O)CC(O)C(=O)O (stereo not shown) [Control 15, malic acid]",60.4 ± 1.7 x 10^4,102.2 ± 3.0%,,
"O=C(O)c1cc(=O)[nH]c(=O)[nH]1 [Control 33, orotic acid]",,,94.2 ± 1.7%,CHANGE OF THE NUMBER OF CELLS (x 10^4) [4]: 70.0 ± 1.3 x 10^4
"O=CC[C@H](O)[C@H](O)CO [Control 8, 2-deoxy-D-ribose]",59.0 ±3.2 x 10^4,99.9 ±5.9%,,
"O=C(O)CC(O)C(=O)O (stereo not shown) [Control 14, malic acid]",58.7 ± 2.1 x 10^4,99.3±3.7%,,
"O=C(O)CNC(=O)c1ccccc1 [Control 31, N-benzoylglycine]",,,99.8 ± 2.1%,CHANGE OF THE NUMBER OF CELLS (x 10^4) [4]: 74.2 ± 1.6 x 10^4
"Nc1ncnc2nc[nH]c12 [Control 11, adenine]",58.2 ±1.8 x 10^4,98.5 ±3.2%,,
"O=C1O[C@H]([C@@H](O)CO)C(O)=C1O [Control 19, L-ascorbic acid]",56.7±2.1 x 10^4,96.0±3.7%,,
"N[C@@H](Cc1c[nH]cn1)C(=O)O [Control 24, L-histidine]",,,108.7 ± 2.7%,CHANGE OF THE NUMBER OF CELLS (x 10^4) [2]: 80.7 ± 2.0 x 10^4; number of cells as compared to the number of untreated cells (48 hr): slightly increased
"N[C@@H](Cc1c[nH]c2ccccc12)C(=O)O [Control 2, L-tryptophan]",61.7±3.0 x 10^4,104.4±5.0%,,
N[C@@H](Cc1c[nH]c2ccccc12)C(=O)O [L-tryptophan],,,,number of cells as compared to the number of untreated cells (48 hr): increased slightly
"O=CC[C@H](O)[C@H](O)CO [Control 6, 2-deoxy-D-ribose]",59.3±2.3 x 10^4,,,
"Nc1ncnc2nc[nH]c12 [Control 10, adenine]",60.5±1.4 x 10^4,102.4±2.5%,,
"O=C(O)CCCC[C@@H]1SC[C@@H]2NC(=O)N[C@@H]21 [Control 25, d-biotin]",,,99.9 ± 3.1%,CHANGE OF THE NUMBER OF CELLS (x 10^4) [2]: 74.2 ± 2.3 x 10^4
"O=CC[C@H](O)[C@H](O)CO [Control 7, 2-deoxy-D-ribose]",59.8±1.2 x 10^4,101.1±2.2%,,
"O=C(O)CC(O)C(=O)O (stereo not shown) [Control 16, malic acid]",58.8±2.5 x 10^4,99.5±4.5%,,
"N[C@@H](Cc1c[nH]c2ccccc12)C(=O)O [Control 4, L-tryptophan]",63.0±3.4 x 10^4,106.6±5.8%,,
"N[C@@H](Cc1ccccc1)C(=O)O [Control 22, L-phenylalanine]",,,,IN % OF THE UN-TREATED CELLS [1]: 109.4 ± 4.0%; CHANGE OF THE NUMBER OF CELLS (x 10^4) [2]: 81.3 ± 3.0 x 10^4; number of cells as compared to the number of untreated cells (48 hr): slightly increased
"O=C[C@@H](O)[C@@H](O)[C@H](O)[C@H](O)CO [Control 30, D-mannose]",,,98.4 ± 1.5%,CHANGE OF THE NUMBER OF CELLS (x 10^4) [4]: 73.1 ± 1.1 x 10^4
"Cc1ncc(CO)c(CO)c1O [Control 26, pyridoxine]",,,91.0 ± 2.1%,CHANGE OF THE NUMBER OF CELLS (x 10^4) [2]: 67.6 ± 1.6 x 10^4
"Cc1cc2nc3c(=O)[nH]c(=O)nc-3n(C[C@H](O)[C@H](O)[C@H](O)COP(=O)(O)O)c2cc1C [Control 32, riboflavin-5'-phosphate]",,,98.9 ± 1.8%,CHANGE OF THE NUMBER OF CELLS (x 10^4) [4]: 73.5 ± 1.3 x 10^4
"O=C1O[C@H]([C@@H](O)CO)C(O)=C1O [Control 20, L-ascorbic acid]",56.3 ±2.6 x 10^4,95.2 ±4.8%,,
"N[C@@H](Cc1ccc(O)cc1)C(=O)O [Control 28, L-tyrosine]",,,,IN % OF THE UN-TREATED CELLS [1]: 94.9 ± 1.5%; CHANGE OF THE NUMBER OF CELLS (x 10^4) [2]: 70.5 ± 1.1 x 10^4
"Cc1cc2nc3c(=O)[nH]c(=O)nc-3n(C[C@H](O)[C@H](O)[C@H](O)CO)c2cc1C [Control 29, riboflavin]",,,103.5 ± 2.2%,CHANGE OF THE NUMBER OF CELLS (x 10^4) [2]: 76.9 ± 1.7 x 10^4; number of cells as compared to the number of untreated cells (48 hr): slightly increased
"CSCC[C@H](N)C(=O)O [Control 27, L-methionine]",,,98.7 ± 3.6%,CHANGE OF THE NUMBER OF CELLS (x 10^4) [2]: 73.3 ± 2.7 x 10^4
